Data from patent publication US5326786A, “5,6,7,9-tetrahydro-1,2,3-trimethoxy-9-oxobenzo[alpha]heptalene derivative and pharmaceutical use” (Ohgen Research Laboratories Ltd., priority 1992, dated 1994).
In brackets after ≈: the same amount, converted by molar mass. Several values for one entry are separate records, joined by “and”; a condition that tells them apart may be missing. Equal values may be shown once. Where a name gives a salt, the structure may show the parent alone.

Columns and labels:
[1] = system: adriamycin-resistant mouse leukemic cells p388/ADR; assay: In vitro cancer cell proliferation inhibiting test (1); format: cell-based; details: 48 h, read-out: IC50 (50% proliferation inhibitory concentration), RPMI 1640 with 10% fetal bovine serum, cultured for 2 days
Procedure: (§1) (1) 10^6 each of mouse leukemic cells p388/S and adriamycin-resistant mouse leukemic cells p388/ADR are suspended in RPMI 1640 media each containing 10% fetal bovine serum, respectively, and cultured for 2 days in the presence of a test compound (this was used after it was dissolved in dimethylsulfoxide to 1 mg/ml and the solution was diluted with a phosphate buffer).

[2] = system: p388/S mouse leukemic cells; assay: as above; format: cell-based; details: 48 h, read-out: IC50 (50% proliferation inhibitory concentration), RPMI 1640 with 10% fetal bovine serum, cultured for 2 days
Procedure: as §1

[3] = system: cancer cells; details: known compounds, background; cited from earlier work
[4] = known compounds, background; cited from earlier work
[5] = system: adriamycin-resistant mouse leukemic cells p388/ADR; assay: In vitro cancer cell proliferation inhibiting test (2), Trypan Blue living cell count; format: cell-based
Procedure: (§2) (2) Mouse leukemic cells p388/S and adriamycin-resistant mouse leukemic cells P388/ADR subculturally transplanted in the abdominal cavity of mice were taken out together with the asites therefrom, respectively, and after washing, suspended in RPMI 1640 media (each containing 10% fetal bovine serum and 10 μM 2-mercaptoethanol) to 2×10^5 cells/ml, respectively.
(§3) Test solutions (solutions of the compound of the later-described Example 3 in phosphate-buffered physiological saline) were added to portions of each of these cell suspensions, respectively; and the mixtures were separately put into a 24-well culture plate and subjected to culture for 2 days in a 5% carbon dioxide culturing vessel.

[6] = system: p388/S mouse leukemic cells; assay: as above; format: cell-based
Procedure: as §2, §3

[7] = Acute toxicity test; format: in vivo, mouse; details: mouse, in vivo, ip; intraperitoneal; CDF male mice; 10 days observation; Litchfield Wilcoxon method; printed interval 233 to 310 mg/kg
[8] = system: CDF male mice; assay: Acute toxicity test; format: in vivo, mouse; details: intraperitoneal

COc1cc2c(c(OC)c1OC)-c1ccc(OC)c(=O)cc1C(NC[C@H]1COC(C)(C)O1)CC2 (stereo partly drawn) [D-N-(O,O-isopropylideneglyceryl)deacetylcolchicine]
IC50 [1]: 0.038 mg/L (≈ 0.0806 µM) | IC50 [2]: 0.014 mg/L (≈ 0.0297 µM)

COc1cc2c(c(OC)c1OC)-c1ccc(OC)c(=O)cc1C(NCC1COC(C)(C)O1)CC2 (racemic) [DL-N-(O,O-isopropylideneglyceryl)deacetylcolchicine]
IC50 [1]: 0.13 mg/L (≈ 0.276 µM) | IC50 [2]: 0.013 mg/L (≈ 0.0276 µM)

CNc1ccc2c(cc1=O)[C@@H](NC(C)=O)CCc1cc(OC)c(OC)c(OC)c1-2 [N-methylcolchiceinamide]
carcinostatic action [3]: no sufficient carcinostatic action | toxicity [4]: strong toxicity

COc1cc2c(c(OC)c1OC)-c1ccc(OC)c(=O)cc1[C@@H](NC(C)=O)CC2 [Colchicine, colchicine]
carcinostatic action [3]: no sufficient carcinostatic action | toxicity [4]: strong toxicity

CNc1ccc2c(cc1=O)C(NCC1COC(C)(C)O1)CCc1cc(OC)c(OC)c(OC)c1-2 (centres unmarked) [N'-(O,O-isopropylideneglyceryl)-N-methyldeacetylcolchiceinamide tartrate salt]
IC50 (50% proliferation inhibitory concentration), P388/ADR ([5]; 2 days, experiment carried out three times, one value per experiment, tartrate salt): 0.0164 mg/L and 0.0192 mg/L | IC50 ([5]; Mus musculus, 48 h, read-out: IC50 (50% proliferation inhibitory concentration), P388/ADR, 2 days, experiment carried out three times, one value per experiment): 0.018 mg/L | IC50 ([6]; Mus musculus, P388/S, 48 h, read-out: IC50 (50% proliferation inhibitory concentration), p388/S, 2 days, experiment carried out three times, one value per experiment): 0.0135 mg/L | IC50 (50% proliferation inhibitory concentration), p388/S ([6]; p388/S, 2 days, experiment carried out three times, one value per experiment, tartrate salt): 0.0128 mg/L and 0.0149 mg/L

COc1cc2c(c(OC)c1OC)-c1ccc(OC)c(=O)cc1C(NC[C@@H]1COC(C)(C)O1)CC2 (stereo partly drawn) [Example 3, L-N-(O,O-isopropylideneglycerol)deacetylcolchicine]
IC50 [1]: 0.14 mg/L (≈ 0.297 µM) | IC50 [2]: 0.018 mg/L (≈ 0.0382 µM) | LD50 at 240 h [7]: 269 mg/kg | body weight change ([8]; 10 days observation): tended to decrease up to 2 to 4 days after administration, but thereafter increased gradually | acute toxicity symptoms ([8]; high administration groups, on and after one day after administration): the lie of hair got worse on and after one day after administration, and cases where diarrhea or loss of hair arose were also observed
